Experimental data from patent US20230012560A1, “HEPATITIS B ANTIVIRAL AGENTS” (TAIGEN BIOTECHNOLOGY CO., LTD., priority 2019, published 2023).

System: HBV (HepAD38 cells)
Assay: Real-Time PCR Assay (extracellular HBV DNA from HepAD38 culture supernatants)
Assay type: cell-based
Conditions: Hepatitis B virus, 120 h, compound treatment for 5 days without tetracycline, extracellular DNA in culture supernatant quantified by real-time PCR, read-out: EC50 (50% effective concentration)
Method: HepAD38 cells were seeded and cultured on 96-well plates. After incubation for 2 days, cells were fed with compound-containing media without tetracycline. After compound treatment for 5 days, culture supernatants were collected. Extracellular DNA was then extracted using LabTurbo DNA mini kit, and quantified by real-time PCR.
Real-time PCR was performed using an ABI QuantStudio 3 system in a 96-well optical plate format. The PCR mixture containing forward primer (5′-[…]-3′) (SEQ ID NO.1), reverse primer (5′-GGTGAGTGATTGGAGGTTG-3′) (SEQ ID NO.2) and Luna Universal qPCR Master Mix in a final volume of 24 μl was incubated at 95° C. for 10 min followed by 45 cycle of incubation at 95° C. for 10 s and 60° C. for 10 s. Regression analysis was performed using GraphPad Prism 5 to calculate the 50% effective concentration (EC50) values.

Row | SMILES | EC50
1 | Cn1cc(S(=O)(=O)N[C@@H]2CCN(S(=O)(=O)C3(C)CC3)C2)c(F)c1C(=O)Nc1ccc(F)c(F)c1 [Compound 2] | < 100 nM
2 | Cn1cc(S(=O)(=O)N[C@@H]2CCN(S(=O)(=O)C3CCCC3)C2)c(F)c1C(=O)Nc1ccc(F)c(F)c1 [Compound 3] | 100 to 300 nM
3 | COCCS(=O)(=O)N1CC[C@@H](NS(=O)(=O)c2cn(C)c(C(=O)Nc3ccc(F)c(F)c3)c2F)C1 [Compound 4] | < 100 nM
4 | CNS(=O)(=O)N1CC[C@@H](NS(=O)(=O)c2cn(C)c(C(=O)Nc3ccc(F)c(F)c3)c2F)C1 [Compound 5] | < 100 nM
5 | CNS(=O)(=O)N1CC[C@@H](NS(=O)(=O)c2cn(C)c(C(=O)Nc3cc(F)c(F)c(F)c3)c2F)C1 [Compound 6] | < 100 nM
6 | CNS(=O)(=O)N1CC[C@@H](NS(=O)(=O)c2c(F)c(C(=O)Nc3ccc(F)c(F)c3)n(C)c2Br)C1 [Compound 8] | < 100 nM
7 | CN(C)S(=O)(=O)N1CC[C@@H](NS(=O)(=O)c2cn(C)c(C(=O)Nc3ccc(F)c(F)c3)c2F)C1 [Compound 9] | < 100 nM
8 | CNS(=O)(=O)N1CC[C@@H](NS(=O)(=O)c2c(F)c(C(=O)Nc3ccc(F)c(F)c3)n3c2CCC3)C1 [Compound 10] | < 100 nM
9 | CNS(=O)(=O)N1CC[C@@H](NS(=O)(=O)c2c(F)c(C(=O)Nc3ccc(F)c(F)c3)n3c2CCCC3)C1 [Compound 11] | 100 to 300 nM
10 | CNS(=O)(=O)N1CC[C@@H](NS(=O)(=O)c2c(Cl)c(C(=O)Nc3cc(F)c(F)c(F)c3)n3c2CCC3)C1 [Compound 12] | < 100 nM
11 | Cn1cc(S(=O)(=O)N[C@@H]2CCN(S(=O)(=O)c3ccc(F)cc3)C2)c(F)c1C(=O)Nc1ccc(F)c(F)c1 [Compound 13] | < 100 nM
12 | Cn1cc(S(=O)(=O)N[C@@H]2CCN(S(=O)(=O)/C=C/c3ccccc3)C2)c(F)c1C(=O)Nc1ccc(F)c(F)c1 [Compound 14] | 100 to 300 nM
13 | CNS(=O)(=O)N1CC[C@@H](NS(=O)(=O)c2cn(C)c(C(=O)Nc3ccc(F)c(C(F)F)c3)c2F)C1 [Compound 16] | < 100 nM
14 | CCn1cc(S(=O)(=O)N[C@@H]2CCN(S(=O)(=O)NC)C2)c(F)c1C(=O)Nc1ccc(F)c(F)c1 [Compound 17] | < 100 nM
15 | CNS(=O)(=O)N1CCC(C)C(NS(=O)(=O)c2cn(C)c(C(=O)Nc3ccc(F)c(F)c3)c2F)C1 (centres unmarked) [Compound 19] | < 100 nM
16 | CNS(=O)(=O)N1CCCC(C)(NS(=O)(=O)c2cn(C)c(C(=O)Nc3ccc(F)c(F)c3)c2F)C1 (centres unmarked) [Compound 20] | < 100 nM
17 | CNS(=O)(=O)N1CCC[C@@H](NS(=O)(=O)c2cn(C)c(C(=O)Nc3cccc(C(F)(F)F)c3)c2F)C1 [Compound 21] | < 100 nM
18 | CCn1cc(S(=O)(=O)N[C@@H]2CCCN(S(=O)(=O)NC)C2)c(F)c1C(=O)Nc1ccc(F)c(F)c1 [Compound 22] | < 100 nM
19 | Cn1cc(S(=O)(=O)NC2CCN(S(=O)(=O)C3(C)CC3)CC2)c(F)c1C(=O)Nc1ccc(F)c(F)c1 [Compound 24] | < 100 nM
20 | CNS(=O)(=O)N1CCC(C)(NS(=O)(=O)c2cn(C)c(C(=O)Nc3ccc(F)c(F)c3)c2F)CC1 [Compound 25] | < 100 nM
21 | CCS(=O)(=O)N1CCC2(NS(=O)(=O)c3cn(C)c(C(=O)Nc4ccc(F)c(F)c4)c3F)CC2C1 (centres unmarked) [Compound 26] | < 100 nM

Row | SMILES | EC50
22 | CNS(=O)(=O)N1CCC(NS(=O)(=O)c2cn(C)c(C(=O)Nc3ccc(F)c(F)c3)c2F)C(F)(F)C1 (centres unmarked) [Compound 27] | < 100 nM
23 | CN(C)C(=O)C(=O)N1CC[C@@H](NS(=O)(=O)c2cn(C)c(C(=O)Nc3cc(F)c(F)c(F)c3)c2F)C1 [Compound 30] | < 100 nM
24 | COCCNC(=O)C(=O)N1CC[C@@H](NS(=O)(=O)c2cn(C)c(C(=O)Nc3ccc(F)c(F)c3)c2F)C1 [Compound 32] | < 100 nM
25 | Cn1cc(S(=O)(=O)N[C@@H]2CCN(C(=O)C(=O)NC3CC3)C2)c(F)c1C(=O)Nc1ccc(F)c(F)c1 [Compound 33] | < 100 nM
26 | C#CCNC(=O)C(=O)N1CC[C@@H](NS(=O)(=O)c2cn(C)c(C(=O)Nc3ccc(F)c(F)c3)c2F)C1 [Compound 34] | < 100 nM
27 | CCONC(=O)C(=O)N1CC[C@@H](NS(=O)(=O)c2cn(C)c(C(=O)Nc3cc(F)c(F)c(F)c3)c2F)C1 [Compound 35] | < 100 nM
28 | Cn1cc(S(=O)(=O)N[C@@H]2CCN(C(=O)C(=O)NC3COC3)C2)c(F)c1C(=O)Nc1cc(F)c(F)c(F)c1 [Compound 36] | < 100 nM
29 | Cn1cc(S(=O)(=O)N[C@@H]2CCN(C(=O)C(=O)NCCO)C2)c(F)c1C(=O)Nc1cc(F)c(F)c(F)c1 [Compound 37] | < 100 nM
30 | CC(=O)OCCNC(=O)C(=O)N1CC[C@@H](NS(=O)(=O)c2cn(C)c(C(=O)Nc3cc(F)c(F)c(F)c3)c2F)C1 [Compound 38] | < 100 nM
31 | C[C@@H](NC(=O)C(=O)N1CC[C@@H](NS(=O)(=O)c2cn(C)c(C(=O)Nc3cc(F)c(F)c(F)c3)c2F)C1)C(F)(F)F [Compound 39] | < 100 nM
32 | CNC(=O)C(=O)N1CC[C@@H](NS(=O)(=O)c2cn(C)c(C(=O)Nc3ccc(F)c(C(F)F)c3)c2F)C1 [Compound 40] | < 100 nM
33 | CNC(=O)C(=O)N1CC[C@@H](NS(=O)(=O)c2cn(C)c(C(=O)Nc3ccc(F)c(Cl)c3)c2F)C1 [Compound 41] | < 100 nM
34 | CNC(=O)C(=O)N1CC[C@@H](NS(=O)(=O)c2c(F)c(C(=O)Nc3cc(F)c(F)c(F)c3)n(C)c2Cl)C1 [Compound 43] | < 100 nM
35 | CNC(=O)C(=O)N1CC[C@@H](NS(=O)(=O)c2c(F)c(C(=O)Nc3ccc(F)c(F)c3)n(C)c2C)C1 [Compound 44] | < 100 nM
36 | CCNC(=O)C(=O)N1CC[C@@H](NS(=O)(=O)c2c(F)c(C(=O)Nc3cc(F)c(F)c(F)c3)n3c2CCC3)C1 [Compound 45] | < 100 nM
37 | CNC(=O)C(=O)N1CC[C@@H](NS(=O)(=O)c2c(F)c(C(=O)Nc3cc(F)c(F)c(F)c3)n3c2CCCC3)C1 [Compound 46] | 100 to 300 nM
38 | CNC(=O)C(=O)N1CC[C@@H](NS(=O)(=O)c2c(Cl)c(C(=O)Nc3cc(F)c(F)c(F)c3)n3c2CCC3)C1 [Compound 47] | 100 to 300 nM
39 | CNC(=O)C(=O)N1CC[C@@H](NS(=O)(=O)c2cn(CC(F)F)c(C(=O)Nc3ccc(F)c(F)c3)c2F)C1 [Compound 48] | < 100 nM
40 | CNC(=O)C(=O)N1CC[C@@H](NS(=O)(=O)c2cn(C3CC3)c(C(=O)Nc3ccc(F)c(F)c3)c2F)C1 [Compound 49] | < 100 nM
41 | CNC(=O)C(=O)N1CC[C@@H](NS(=O)(=O)c2cn(CC3CC3)c(C(=O)Nc3ccc(F)c(F)c3)c2F)C1 [Compound 50] | 100 to 300 nM
42 | CCCn1cc(S(=O)(=O)N[C@@H]2CCN(C(=O)C(=O)NC)C2)c(F)c1C(=O)Nc1ccc(F)c(F)c1 [Compound 51] | < 100 nM

Row | SMILES | EC50
43 | C=CCn1cc(S(=O)(=O)N[C@@H]2CCN(C(=O)C(=O)NC)C2)c(F)c1C(=O)Nc1ccc(F)c(F)c1 [Compound 52] | < 100 nM
44 | CNC(=O)C(=O)N1CC[C@@H](NS(=O)(=O)c2cn(C3CCCC3)c(C(=O)Nc3ccc(F)c(F)c3)c2F)C1 [Compound 53] | 300 to 1000 nM
45 | CCNC(=O)C(=O)N1CC(C)C(NS(=O)(=O)c2cn(C)c(C(=O)Nc3cc(F)c(F)c(F)c3)c2F)C1 (centres unmarked) [Compound 54] | < 100 nM
46 | CNC(=O)C(=O)N1CC2CC2(NS(=O)(=O)c2cn(C)c(C(=O)Nc3cc(F)c(F)c(F)c3)c2F)C1 (centres unmarked) [Compound 55] | < 100 nM
47 | CCNC(=O)C(=O)N1CC(NS(=O)(=O)c2cn(C)c(C(=O)Nc3cc(F)c(F)c(F)c3)c2F)C1 [Compound 56] | < 100 nM
48 | CCn1cc(S(=O)(=O)N[C@@H]2CCCN(C(=O)C(N)=O)C2)c(F)c1C(=O)Nc1ccc(F)c(F)c1 [Compound 58] | < 100 nM
49 | CNC(=O)C(=O)N1CCC2CC2(NS(=O)(=O)c2cn(C)c(C(=O)Nc3cc(F)c(F)c(F)c3)c2F)C1 (centres unmarked) [Compound 59] | < 100 nM
50 | CNS(=O)(=O)N[C@@H]1CCN(S(=O)(=O)c2cn(C)c(C(=O)Nc3cc(F)c(F)c(F)c3)c2F)C1 [Compound 60] | 300 to 1000 nM
51 | CCNC(=O)C(=O)N[C@@H]1CCN(S(=O)(=O)c2cn(C)c(C(=O)Nc3cc(F)c(F)c(F)c3)c2F)C1 [Compound 61] | 300 to 1000 nM
52 | CNS(=O)(=O)NC1CCN(S(=O)(=O)c2cn(C)c(C(=O)Nc3cc(F)c(F)c(F)c3)c2F)CC1 [Compound 62] | 300 to 1000 nM
53 | CCNC(=O)C(=O)NC1CCN(S(=O)(=O)c2cn(C)c(C(=O)Nc3cc(F)c(F)c(F)c3)c2F)CC1 [Compound 63] | 100 to 300 nM
54 | CCNC(=O)C(=O)N1CCN(S(=O)(=O)c2cn(C)c(C(=O)Nc3cc(F)c(F)c(F)c3)c2F)CC1 [Compound 65] | 300 to 1000 nM
55 | CNS(=O)(=O)N1CCN(S(=O)(=O)c2cn(C)c(C(=O)Nc3cc(F)c(F)c(F)c3)c2F)CC1 [Compound 66] | 100 to 300 nM
56 | CCS(=O)(=O)N1CC2CC1CN2S(=O)(=O)c1cn(C)c(C(=O)Nc2ccc(F)c(F)c2)c1F (centres unmarked) [Compound 67] | 300 to 1000 nM
57 | Cn1cc(S(=O)(=O)NC2CCN(C(=O)C(N)=O)CC2)c(F)c1C(=O)Nc1cc(F)c(F)c(F)c1 [Compound 68] | < 100 nM
58 | CCNC(=O)C(=O)N1CCC(NS(=O)(=O)c2cn(C)c(C(=O)Nc3cc(F)c(F)c(F)c3)c2F)CC1 [Compound 69] | < 100 nM
59 | CCNC(=O)C(=O)N1CCC(NS(=O)(=O)c2cn(C)c(C(=O)Nc3ccc(F)c(C)c3)c2F)CC1 [Compound 71] | < 100 nM
60 | CCNC(=O)C(=O)N1CCC(NS(=O)(=O)c2cn(C)c(C(=O)Nc3cccc(Cl)c3)c2F)CC1 [Compound 72] | < 100 nM
61 | CCNC(=O)C(=O)N1CCC(NS(=O)(=O)c2cn(C)c(C(=O)Nc3cccc(C(F)(F)F)c3)c2F)CC1 [Compound 73] | < 100 nM
62 | CCNC(=O)C(=O)N1CCC(NS(=O)(=O)c2cn(C)c(C(=O)Nc3ccc(F)c(Cl)c3F)c2F)CC1 [Compound 74] | < 100 nM
